Here are results for one molecule from patent publication US20250161286A1 (AEVIS BIO, INC., priority 2022, published 2025).

The subject of series [1] is mouse model with Parkinson's disease induced by MPTP administration. The series is described as follows: Grip strength test in MPTP-induced Parkinson's disease mouse model. To be noted: MPTP mice. The format is in vivo. As for the experimental part: To cause the disease, mice in the G2, G3, G4, and G5 groups were administered MPTP dissolved in saline via an intraperitoneal route at 2-hour intervals four times a day (20 mg/kg/time), while the G1 group received the same amount of saline.
A grip strength test was performed on day 6 of the test. When a mouse put on a grip strength measuring device (SLD-5FGN, Duratool, China) pulled a net of the device, the measuring device automatically measured the animal's grip strength and expressed it in grams. The average value was measured through five tests per individual.

Series [2] deals with iNOS and COX-2. The series is described as follows: iNOS and COX-2 mRNA expression in LPS-stimulated BV-2 cells (real-time PCR). The format is cell-based, mouse. The note with it: BV-2 cells, 3.33, 10 or 30 μM, 1 μg/mL LPS, 6 hours. Here is the method: Finally, to determine the mRNA expression levels of iNOS and COX-2, BV-2 was seeded in a 6-well plate (Corning, MD, USA) at 5×10^5 cells/well, and cultured using a DMEM medium (Corning, MD, USA) containing 10% fetal bovine serum (Corning, MD, USA) and 100 U/ml of penicillin/streptomycin (Corning, MD, USA) at 37° C. in a 5% CO2 incubator for one day for stabilization. […] 1 μg/mL of LPS (Sigma, USA) was added to all experimental groups excluding the non-inflammation-induced group and allowed to react at 37° C. in a 5% CO2 incubator for 6 hours.
The drug-treated BV-2 underwent RNA prep according to the kit manual using an RNA prep kit (Monarch Total RNA Miniprep kit, NEB, UK), and the concentration was measured using a nanophotometer (NP80, Implen, Germany). […]
The expression level of each oxidative stress-associated gene in the synthesized cDNA was analyzed and compared using Real-Time PCR (StepOne™ Bioscience, USA) equipment. […] The CT value for the gene of each sample obtained through real-time PCR was normalized by the value of the internal control gene (GAPDH) of each sample, the expression level was estimated inversely by 2ΔΔCT calculation, and the resulting value of each group was quantified and expressed as a percentage relative to the LPS-only treatment group.

Series [3] can be described thus: Cytotoxicity evaluation, CCK analysis kit. The format is cell-based. The note with it: human, MM.1S (CRL-2974) multiple myeloma cells; MM.1S cells, treated for 3 days. Here is the method:
The MM.1S (CRL-2974) cell line, which is a human multiple myeloma cell line, was purchased from the American Type Culture Collection (ATCC, Manassas, VA, USA) and used, and incubated using RPMI1640 medium (Corning, MD, USA) supplemented with 10% fatal bovine serum (Corning, MD, USA), 100 U/ml of penicillin (Corning, MD, USA), and 100 μg/ml of streptomycin (Corning, MD, USA) at 37° C. in a 5% CO2 incubator for 24 hours.

In series [4] the test system is iNOS and COX-2. The series is described as follows: iNOS and COX-2 protein expression in LPS-stimulated BV-2 cells (immunoblotting). The note with it: BV-2 cells, 3.33, 10 or 30 μM, 1 μg/mL LPS, 24 hours. The format is cell-based, mouse. Here is the method:
To further confirm the oxidative stress suppression effect, the content of nitrite released due to an inflammatory response and the expression levels of iNOS, which is an enzyme that produces nitric oxide, and COX-2, which is cyclooxygenase-2, were determined in mouse microglial cells (BV-2, ATCC, Manassas, VA, USA).
To determine the content of nitrite and the protein expression levels of iNOS and COX-2, BV-2 was seeded in a 12-well plate (Corning, MD, USA) at 1.5×10^5 cells/well, and cultured using a DMEM medium (Corning, MD, USA) containing 10% fetal bovine serum (Corning, MD, USA) and 100 U/ml of penicillin/streptomycin (Corning, MD, USA) at 37° C. in a 5% CO2 incubator for one day for stabilization. […] 1 μg/mL of LPS (Sigma, USA) was added to all experimental groups excluding the non-inflammation-induced group and allowed to react at 37° C. in a 5% CO2 incubator for 24 hours.
The cells from which the cell culture solution was harvested were disrupted by adding a RIPA buffer containing a protease inhibitor cocktail (Thermo Fisher Scientific), and centrifuged at 14,000 rpm for 15 minutes at 4° C. to obtain a cell extract. Equal amounts of the cell extract were loaded, and proteins were separated through SDS-PAGE and then transferred to a PVDF membrane. […]

A further series has as its target cereblon (CRBN) (Homo sapiens, UniProt Q96SW2). Nature of the series: In vitro CRBN binding assay (AlphaScreen, competitive inhibition of the PROTAC assay).

`Nc1cccc2c1C(=S)N(C1CCC(=O)NC1=O)C2=O` (stereo not drawn) [3-MP, 3-thiopomalidomide]: the grip strength result in series [1] (oral, 90 mg/kg) is listed as “recovered to a level similar to that of the vehicle administration group”; in series [1] (oral, 10, 30, 90 mg/kg/day, versus MPTP group), “increased in a concentration-dependent manner”. The “mRNA expression of oxidative stress-associated gene (iNOS, COX-2)” value in the series on iNOS and COX-2 [2] is reported as “effectively inhibit the mRNA expression of an oxidative stress-associated gene”. This molecule also returned a half-maximal inhibitory concentration (IC50) at 3 days in series [3] of at least 50 µM. For the same molecule, the “expression of oxidative stress-associated proteins (iNOS and COX-2)” value in the series with iNOS and COX-2 [4] is given as “effectively reduced”. At cereblon (CRBN), this molecule came in with an IC50 of 0.19 µM.
